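Following 48 hours of exposure in 96-well plates, responses at five concentrations were used to interpolate endpoints linearly. Abbreviation: GI50, concentration required for 50% inhibition of growth.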 Active and inactive are the calls of the source. No stated cut-off is given here; in the data, active = GI50 up to about 1.1 µM and inactive = higher.

Test systems include 786-0; CCRF-CEM; HCT-116; HCT-15; Hs-578T; K562; KM12; M14; MDA-MB-231; MOLT-4; NCI-H226; OVCAR-4; SK-MEL-5; SK-OV-3; SN12C; T47D; U-251; UACC-257; UO-31; HOP-92.
Holding throughout (assay): NCI tumour cell line growth inhibition, 48 h

Turning to `COc1cc(O)c2c(=O)c(OC)c(-c3ccc(OC)c(O)c3)oc2c1` [AYANIN], the GI50 in the test on 786-0 was 12.5 µM (inactive); in the test on CCRF-CEM it was 23.6 µM (inactive); with HCT-116 it was 32.1 µM (inactive); in the test with HCT-15, 14.3 µM; in the test on Hs-578T, 7.85 µM (inactive); in the test on K562, 60.5 µM (inactive). The GI50 with KM12 was 35.7 µM (inactive); with M14, 52.2 µM (inactive); in the test with MDA-MB-231, 14.8 µM (inactive); in the test on MOLT-4, 42.7 µM (inactive); with NCI-H226, > 100 µM (inactive); in the test with OVCAR-4, 22.1 µM (inactive). The GI50 was 20.4 µM (inactive) in the test on SK-MEL-5; 35.7 µM (inactive) with SK-OV-3; 61.9 µM (inactive) in the test with SN12C; 3.83 µM (inactive) in the test on T47D; > 100 µM (inactive) in the test with U-251; 85.7 µM (inactive) in the test on UACC-257. Besides, the GI50 in the test with UO-31 was 28.9 µM (inactive).

As to `CC1=C(N2CC2)C(=O)C(CO)=C(N2CC2)C1=O`, the GI50 with 786-0 was < 0.0321 µM (active); in the test with CCRF-CEM, < 0.01 µM (active); in the test with HCT-116, < 0.0291 µM (active); in the test with HCT-15 it was 0.0151 µM; with Hs-578T it was 0.234 µM (active); with K562 it was 0.0186 µM (active). Further, the GI50 was 0.0227 µM (active) in the test on KM12; 0.0111 µM (active) in the test on M14; 0.173 µM (active) in the test on MDA-MB-231; 0.0129 µM (active) in the test with MOLT-4; 0.0506 µM (active) in the test with NCI-H226; 0.103 µM (active) in the test on OVCAR-4. The GI50 in the test on SK-MEL-5 was 0.0279 µM (active); in the test on SK-OV-3 it was 0.0516 µM (active); in the test with SN12C, < 0.0102 µM (active); with T47D, 0.0114 µM (active); with U-251, 0.0141 µM (active); in the test on UACC-257, 0.0923 µM (active). In addition, the GI50 in the test on UO-31 was 0.0101 µM (active).

For `O=c1[nH][nH]c(=O)n1Cc1ccccc1Cn1c(=O)[nH][nH]c1=O`, the GI50 with 786-0 is > 100 µM (inactive); in the test on CCRF-CEM, > 100 µM (inactive); in the test with HCT-116, > 100 µM (inactive); in the test on HCT-15 it was more than 100 µM; in the test on HOP-92 it was > 100 µM (inactive); in the test on Hs-578T, > 100 µM (inactive). The GI50 with K562, with KM12, in the test with M14, in the test on MDA-MB-231, with MOLT-4 and with NCI-H226 was > 100 µM (inactive) throughout. The GI50 with SK-MEL-5, with SK-OV-3, in the test on SN12C, with T47D, in the test on U-251 and with UACC-257 was > 100 µM (inactive) throughout. The GI50 with UO-31 was > 100 µM (inactive).

With `Cc1cc2cc3c(cc2c(-c2ccc(N)cc2)n1)OCO3`, the GI50 in the test on 786-0 was 25.6 µM (inactive); with CCRF-CEM, 28.5 µM (inactive); in the test on HCT-116, 31.6 µM (inactive); in the test on HCT-15, 53 µM; in the test with HOP-92 it was 13.9 µM (inactive); in the test on Hs-578T it was 51.3 µM (inactive). The GI50 in the test on K562 was 23.1 µM (inactive); in the test with KM12 it was 38.9 µM (inactive); in the test on M14, 81.8 µM (inactive); with MDA-MB-231, 13.7 µM (inactive); in the test on MOLT-4 it was 13.8 µM (inactive); in the test on SK-MEL-5 it was 24.2 µM (inactive). The GI50 is > 100 µM (inactive) with SK-OV-3; 39.4 µM (inactive) with SN12C; 29.6 µM (inactive) in the test with T47D; 62.5 µM (inactive) in the test with U-251; > 100 µM (inactive) with UACC-257; 29.2 µM (inactive) in the test on UO-31.

With `CC1(C)OC[C@@H](O)[C@H](C#N)CO1`, the GI50 was > 100 µM (inactive) with 786-0; > 100 µM (inactive) with CCRF-CEM; > 100 µM (inactive) in the test with HCT-116; more than 100 µM in the test with HCT-15; > 100 µM (inactive) in the test on Hs-578T; > 100 µM (inactive) in the test with K562. Also, the GI50 with KM12, in the test with M14, in the test on MDA-MB-231, in the test with MOLT-4, in the test with NCI-H226 and in the test on OVCAR-4 was > 100 µM (inactive) throughout. Besides, the GI50 in the test on SK-MEL-5, with SK-OV-3, in the test with SN12C, in the test with T47D, with U-251 and in the test with UACC-257 was > 100 µM (inactive) each time. In the test with UO-31, the GI50 was > 100 µM (inactive).

On to `N#CC12CC(C=O)=C(N)C1(C#N)CC(C=O)=C2N` (stereo unspecified), for which the GI50 in the test with 786-0 is > 100 µM (inactive); in the test on CCRF-CEM it was 36.7 µM (inactive); in the test on HCT-116, 47.3 µM (inactive); in the test with HCT-15 it was 8.34 µM; in the test with HOP-92, 32.5 µM (inactive); in the test with Hs-578T, 34 µM (inactive). Moreover, the GI50 with K562 is 45.9 µM (inactive); in the test on KM12, 88.9 µM (inactive); in the test with M14 it was 35.9 µM (inactive); with MDA-MB-231, > 100 µM (inactive); in the test with MOLT-4, 50.8 µM (inactive); in the test with NCI-H226, > 100 µM (inactive). Also, the GI50 with SK-MEL-5 was 20.8 µM (inactive); in the test on SK-OV-3, > 100 µM (inactive); with SN12C, 74.6 µM (inactive); in the test on T47D, 37.8 µM (inactive); with U-251, 55.3 µM (inactive); in the test with UACC-257, 32.3 µM (inactive). Further, the GI50 in the test on UO-31 is 70.1 µM (inactive).

For the compound `COC(CN(C)C(=S)Nc1cccc2ccccc12)OC`, the GI50 in the test on 786-0 was > 10 µM (inactive); in the test on CCRF-CEM, > 10 µM (inactive); in the test on HCT-116, > 10 µM (inactive); in the test on HCT-15, more than 10 µM; in the test on Hs-578T, > 10 µM (inactive); with K562, > 10 µM (inactive). Also, the GI50 in the test with KM12, in the test on M14, in the test on MDA-MB-231, with MOLT-4, with NCI-H226 and in the test on OVCAR-4 was > 10 µM (inactive) throughout. Also, the GI50 with SK-MEL-5, in the test with SK-OV-3, with SN12C, in the test on T47D, with U-251 and in the test on UACC-257 was > 10 µM (inactive) each time. For the same compound, the GI50 in the test on UO-31 was > 10 µM (inactive).

Consider `Fc1cccc2nc(-c3ccccc3)cc(OCc3ccccc3)c12`, for which the GI50 in the test with 786-0 was > 100 µM (inactive); in the test on CCRF-CEM, > 100 µM (inactive); in the test on HCT-116, > 100 µM (inactive); in the test on HCT-15, more than 100 µM; with Hs-578T, > 100 µM (inactive); in the test with K562, > 100 µM (inactive). For the same compound, the GI50 with KM12, in the test on M14, in the test with MDA-MB-231, with MOLT-4, with NCI-H226 and with OVCAR-4 was > 100 µM (inactive) each time. For the same compound, the GI50 in the test with SK-MEL-5 was 28.4 µM (inactive); with SK-OV-3, > 100 µM (inactive); in the test on SN12C, > 100 µM (inactive); with T47D, 89.3 µM (inactive); in the test on U-251, > 100 µM (inactive); with UACC-257, > 100 µM (inactive). In addition, the GI50 with UO-31 is > 100 µM (inactive).

The values above are taken from ChEMBL document CHEMBL1201862, “PubChem BioAssay data set” (2004).
